Patent US6770279B1, “TNFα antagonists and cyclosporin in therapy of rheumatoid arthritis” (The Kennedy Institute of Rheumatology, priority 1992, dated 2004)

Key:
[1] = tested on: collagen type II induced arthritis in the DBA/1 mouse; assay: Collagen type II induced arthritis: limb involvement (number of arthritic limbs); assay type: in vivo; settings: Example 2B; anti-TNF mAb 300 μg; methylprednisolone acetate 2 mg/kg
Procedure: Male DBA/1 mice were immunized intradermally at 8-12 weeks of age with 100 μg type II collagen emulsified in Freund's complete adjuvant (Difco Laboratories, East Molsey, UK). Day one of arthritis was considered to be the day that erythema and/or swelling was first observed in one or more limbs. Arthritis became clinically evident around 30 days after immunization with type II collagen. For each mouse, treatment was started on the first day that arthritis was observed and continued over a 10 day period, after which the mice were sacrificed and joints were processed for histology. Monoclonal antibody (mAb) treatment was administered on days 1, 4, and 7. For anti-TNF antibody, TN3-19.12, a neutralizing hamster IgG1 anti-TNFα/β monoclonal antibody (mAb), was used (Sheehan, K. C. et al., J. Immunology 142:3884-3893 (1989)). The isotype control was L2. The anti-TNF antibody and the isotype control were provided by R. Schreiber, Washington University Medical School (St. Louis, Mo., USA), in conjunction with Celltech (Slough, UK). The cell-depleting anti-CD4 monoclonal antibody (rat IgG2b) consisted of a 1:1 mixture of YTS 191.1.2 and YTA 3.1.2, provided by H. Waldmann (University of Cambridge, UK) (Galfre, G. et al., Nature 277: 131-133 (1979); Cobbold, S. P. et al., Nature 312: 548-551 (1984); Qin, S. et al., European J. Immunology 17:1159-1165 (1987)).
In collagen-induced arthritis, as in RA, it is usual for additional limbs to become involved after the initial appearance of clinical disease and new limb involvement is an important indicator of the progression of the disease. […]
Male DBA/1 mice were immunized intradermally with 100 μg of bovine type II collagen emulsified in complete Freund's adjuvant (Difco Laboratories, East Molsey, UK). […] Arthritis was monitored for clinical score and paw swelling (measured with calipers) for 10 days, after which the mice were sacrificed and joints were processed for histology. […]

[2] = tested on: collagen type II induced arthritis in the DBA/1 mouse; assay: Collagen type II induced arthritis: clinical score; assay type: in vivo; settings: Example 7B
Procedure: Male DBA/1 mice were immunized intradermally with 100 μg of bovine type II collagen emulsified in complete Freund's adjuvant (Difco Laboratories, East Molsey, UK). The mean day of onset of arthritis was approximately one month after immunization. […] Arthritis was monitored for paw-swelling (measured with calipers) for 10 days, after which the mice were sacrificed and joints were processed for histology.
Clinical Score was assessed on the following scale: 0=normal; 1=slight swelling and/or erythema; 2=pronounced edematous swelling; and 3=joint rigidity. […]
Male DBA/1 mice were immunized intradermally with 100 μg of bovine type II collagen emulsified in complete Freund's adjuvant (Difco Laboratories, East Molsey, UK). […] Arthritis was monitored for paw swelling (measured with calipers) for 10 days, after which the mice were sacrificed and joints were processed for histology.
Clinical score was assessed on the following scale: 0=normal; 1=slight swelling and/or erythema; 2=pronounced edematous swelling, and 3=joint rigidity. […]
Male DBA/1 mice were immunized intradermally with 100 μg of bovine type II collagen emulsified in complete Freund's adjuvant (Difco Laboratories, East Molsey, UK). […] Arthritis was monitored for paw swelling (measured with calipers) for 10 days, after which the mice were sacrificed and joints were processed for histology. […]

[3] = tested on: TNF expression in the joints; assay: Immunohistochemical studies of TNF expression in joints; assay type: in vivo, mouse; settings: preliminary immunohistochemical studies; mice with collagen-induced arthritis
From the text: These findings indicate that rolipram is effective in established collagen-induced arthritis and may therefore be useful in the treatment of RA.

Compound	Increase (%) in limbs affected [1]	Limbs Affected (mean ± SEM) Day 1 [1]	Limbs Affected (mean ± SEM) Day 10 [1]	mean clinical score on day 10 (±SE) ([2]; rolipram 3 mg/kg twice daily, anti-TNF mAb 300 μg days 1, 4, 7, maximum score 12)	severity of arthritis (clinical score) ([2]; rolipram 3, 5 or 10 mg/kg i.p. twice daily, vs Cremophor EL)	TNF expression in the joints [3]
CC(=O)OCC(=O)[C@@]1(O)CC[C@H]2[C@@H]3C[C@H](C)C4=CC(=O)C=C[C@]4(C)[C@H]3[C@@H](O)C[C@@]21C [Methylprednisolone acetate, methylprednisolone acetate]	33%	1.00 ± 0.00	1.50 ± 0.22	–	–	–
COc1ccc(C2CNC(=O)C2)cc1OC1CCCC1 (stereo not drawn) [rolipram]	–	–	–	1.0±0.3	significant reduction in the severity of arthritis	down-regulation of TNF expression in the joints
